Tests used:
[1] = molecular target: hGYS1 enzyme (recombinant hGYS1/GN1 protein) (Homo sapiens (Human), UniProt P13807); assay: GYS1 coupled enzyme assay (PK/LDH); format: biochemical; settings: hGYS1/GN1 50 nM, UDP-Glucose 0.8 mM, G6P 1 mM; geometric mean of at least 2 runs
[2] = tested on: hGYS1 enzyme / glycogen synthesis in HeLa cells; assay: GYS1 cell based assay (glycogen synthesis, Glucose-glo); set-up: species or system human; settings: Homo sapiens, HeLa, 24 h, 24 h incubation, 20 mM glucose, geometric mean of at least 2 runs
Outline: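 HeLa cells starved 24 h in medium containing only 1× Glutamax were plated onto compound in medium with 20 mM glucose (1% DMSO final) for 24 h, 37 °C, 5% CO2. Acid lysates were Tris-quenched, glucoamylase-digested (pH 5.3, 1 h, 37 °C) and read by Glucose-glo luminescence. IC50 came from Hill fits, as geometric mean of ≥2 runs.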

[3] = molecular target: hGYS2 enzyme (recombinant hGYS2/GN1 protein) (Homo sapiens (Human), UniProt P54840); assay: GYS2 coupled enzyme assay (PK/LDH); format: biochemical; settings: geometric mean of at least 2 assay runs on separate days, read-out: Avg_IC50
Outline: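 Continuous PK/LDH-coupled readout of NADH loss at 340 nm over 10 min, with 200 nM hGYS2/GN1 and 2 mM each of UDP-glucose, glucose-6-phosphate and PEP, in 50 mM Tris pH 7.5 with 0.2% glycogen and 2.5% DMSO. Slopes were normalized to controls and IC50s fit to a Hill curve from duplicates.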

hGYS1 enzyme (recombinant hGYS1/GN1 protein), sequence (P13807 whole entry): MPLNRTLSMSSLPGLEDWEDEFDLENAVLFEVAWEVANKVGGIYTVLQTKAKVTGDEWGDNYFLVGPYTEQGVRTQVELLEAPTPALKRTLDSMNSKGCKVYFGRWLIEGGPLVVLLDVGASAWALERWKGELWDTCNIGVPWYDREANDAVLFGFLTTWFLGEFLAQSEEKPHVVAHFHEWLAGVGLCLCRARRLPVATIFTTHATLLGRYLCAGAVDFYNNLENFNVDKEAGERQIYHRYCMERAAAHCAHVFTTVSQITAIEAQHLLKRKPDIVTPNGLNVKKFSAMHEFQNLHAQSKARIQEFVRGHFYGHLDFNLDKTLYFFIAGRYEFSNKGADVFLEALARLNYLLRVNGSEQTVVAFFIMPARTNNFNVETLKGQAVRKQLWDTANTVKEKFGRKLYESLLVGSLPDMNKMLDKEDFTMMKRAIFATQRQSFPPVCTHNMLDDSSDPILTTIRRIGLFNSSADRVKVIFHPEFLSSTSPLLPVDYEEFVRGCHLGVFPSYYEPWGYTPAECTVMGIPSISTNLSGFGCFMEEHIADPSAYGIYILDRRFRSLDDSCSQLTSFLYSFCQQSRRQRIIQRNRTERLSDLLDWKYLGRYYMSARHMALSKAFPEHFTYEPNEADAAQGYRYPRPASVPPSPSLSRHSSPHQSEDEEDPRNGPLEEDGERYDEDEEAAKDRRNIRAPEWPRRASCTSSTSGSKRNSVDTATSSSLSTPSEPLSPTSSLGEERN
hGYS1 enzyme (recombinant hGYS1/GN1 protein), sequence (P46976 whole entry partner): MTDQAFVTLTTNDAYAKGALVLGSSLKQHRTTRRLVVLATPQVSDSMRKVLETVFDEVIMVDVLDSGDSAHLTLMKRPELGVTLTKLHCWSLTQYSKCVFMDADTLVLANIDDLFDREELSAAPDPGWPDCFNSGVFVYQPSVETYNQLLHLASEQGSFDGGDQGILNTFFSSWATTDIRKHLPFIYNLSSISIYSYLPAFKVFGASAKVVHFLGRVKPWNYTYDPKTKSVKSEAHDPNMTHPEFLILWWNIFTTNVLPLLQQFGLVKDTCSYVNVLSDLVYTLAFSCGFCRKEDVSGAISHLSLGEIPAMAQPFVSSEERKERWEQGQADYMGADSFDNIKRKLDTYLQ
hGYS2 enzyme (recombinant hGYS2/GN1 protein), sequence (P54840 whole entry): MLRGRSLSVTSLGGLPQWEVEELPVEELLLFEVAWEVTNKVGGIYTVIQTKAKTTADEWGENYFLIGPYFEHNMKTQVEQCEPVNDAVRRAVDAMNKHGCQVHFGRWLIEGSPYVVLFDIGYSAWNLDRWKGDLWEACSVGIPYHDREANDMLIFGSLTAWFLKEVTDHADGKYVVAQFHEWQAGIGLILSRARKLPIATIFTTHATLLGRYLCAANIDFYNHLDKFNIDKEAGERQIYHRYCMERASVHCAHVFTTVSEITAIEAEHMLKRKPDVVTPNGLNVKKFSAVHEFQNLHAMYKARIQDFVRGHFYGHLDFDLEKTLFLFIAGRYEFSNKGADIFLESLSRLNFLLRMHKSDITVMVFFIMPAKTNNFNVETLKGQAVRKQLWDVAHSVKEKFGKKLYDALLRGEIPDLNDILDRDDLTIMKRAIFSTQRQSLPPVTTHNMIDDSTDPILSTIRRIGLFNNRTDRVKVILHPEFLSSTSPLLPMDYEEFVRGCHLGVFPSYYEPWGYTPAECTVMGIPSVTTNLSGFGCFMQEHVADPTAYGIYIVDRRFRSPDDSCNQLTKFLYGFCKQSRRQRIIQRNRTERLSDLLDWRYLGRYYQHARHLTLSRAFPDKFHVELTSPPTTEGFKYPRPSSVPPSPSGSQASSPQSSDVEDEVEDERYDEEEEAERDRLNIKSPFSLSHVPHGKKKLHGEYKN
hGYS2 enzyme (recombinant hGYS2/GN1 protein), sequence (P46976 whole entry partner): as the sequence (P46976 whole entry partner) above

Row | Structure (SMILES) | IC50 [1] [nM] | IC50 [2] [nM] | IC50 [3] [nM]
1 | Cc1nnn(CC(=O)N2C[C@H](F)C[C@H]2C(=O)N[C@@H](c2ccccc2)c2ccc(C3CC3)c(F)c2)n1 [Compound 433, (2S,4R)-N-[(S)-(4-cyclopropyl-3-fluorophenyl)(phenyl)methyl]-4-fluoro-1-[2-(5-methyl-2H-1,2,3,4-tetrazol-2-yl)acetyl]pyrrolidine-2-carboxamide] | 91 | 1480 | > 100000
2 | CC(C)c1ccc([C@@H](NC(=O)[C@@H]2C[C@@H](F)CN2C(=O)Cn2cc(N(C)C)nn2)c2ccccc2)nc1 [Compound 260, (2S,4R)-1-{2-[4-(dimethylamino)-1H-1,2,3-triazol-1-yl]acetyl}-4-fluoro-N-[(S)-phenyl[5-(propan-2-yl)pyridin-2-yl]methyl]pyrrolidine-2-carboxamide] | 35 | 530 | > 100000
3 | Cc1ccc2c(CC(=O)N3C[C@H](F)C[C@H]3C(=O)N[C@@H](c3ccccc3)c3ccc(C4CC4)c(F)c3)cccc2n1 [Compound 477, (2S,4R)-N-[(S)-(4-cyclopropyl-3-fluorophenyl)(phenyl)methyl]-4-fluoro-1-[2-(2-methylquinolin-5-yl)acetyl]pyrrolidine-2-carboxamide] | 20 | 630 | > 100000
4 | CCn1cc(CC(=O)N2C[C@H](F)C[C@H]2C(=O)N[C@@H](c2ccccc2)c2ccc(C(C)C)c(F)n2)ccc1=O [Compound 792, (2S,4R)-1-[2-(1-ethyl-6-oxo-1,6-dihydropyridin-3-yl)acetyl]-4-fluoro-N-[(S)-[6-fluoro-5-(propan-2-yl)pyridin-2-yl](phenyl)methyl] pyrrolidine-2-carboxamide] | 6 | 210 | > 100000
5 | CC(C)c1ccc([C@@H](NC(=O)[C@@H]2C[C@@H](F)CN2C(=O)CNC(=O)N2CCNCC2)c2ccccc2)cc1F [Compound 365, N-{2-[(2S,4R)-4-fluoro-2-{[(S)-[3-fluoro-4-(propan-2-yl)phenyl](phenyl)methyl]carbamoyl}pyrrolidin-1-yl]-2-oxoethyl}piperazine-1-carboxamide] | 7 | 1190 | > 100000
6 | CC(C)c1ccc([C@@H](NC(=O)[C@@H]2C[C@@H](F)CN2C(=O)CNc2ncco2)c2ccccc2)cc1 [Compound 198, (2S,4R)-4-fluoro-1-{2-[(1,3-oxazol-2-yl)amino]acetyl}-N-[(S)-phenyl[4-(propan-2-yl)phenyl]methyl]pyrrolidine-2-carboxamide] | 31 | 390 | > 100000
7 | CC(C)c1ccc([C@@H](NC(=O)[C@@H]2C[C@@H](F)CN2C(=O)Cc2cnn[nH]2)c2ccccc2)nc1F [Compound 385, (2S,4R)-1-(2-(1H-1,2,3-triazol-5-yl)acetyl)-4-fluoro-N—((S)-(6-fluoro-5-isopropylpyridin-2-yl)(phenyl)methyl)pyrrolidine-2-carboxamide] | 17 | 390 | > 100000
8 | CC(C)c1ccc([C@@H](NC(=O)[C@@H]2C[C@@H](F)CN2C(=O)CNC(N)=O)c2ccccc2)nc1 [Compound 262, (2S,4R)-1-[2-(carbamoylamino)acetyl]-4-fluoro-N-[(S)-phenyl[5-(propan-2-yl)pyridin-2-yl]methyl]pyrrolidine-2-carboxamide] | 62 | 3630 | > 100000
9 | CC(C)c1ccc([C@@H](NC(=O)[C@@H]2C[C@@H](F)CN2C(=O)Cc2ccc[nH]c2=O)c2ccccc2)nc1F [Compound 793, (2S,4R)-4-fluoro-N-[(S)-[6-fluoro-5-(propan-2-yl)pyridin-2-yl](phenyl)methyl]-1-[2-(2-oxo-1,2-dihydropyridin-3-yl)acetyl]pyrrolidine-2-carboxamide] | 12 | 580 | > 100000
10 | CC1(c2ccc([C@@H](NC(=O)[C@@H]3C[C@@H](F)CN3C(=O)CN3C(=O)Cc4ccccc43)c3ccccc3)cc2F)CC1 [Compound 576, (2S,4R)-4-fluoro-N-[(S)-[3-fluoro-4-(1-methylcyclopropyl)phenyl](phenyl)methyl]-1-[2-(2-oxo-2,3-dihydro-1H-indol-1-yl)acetyl]pyrrolidine-2-carboxamide] | 85 | 1800 | > 100000
11 | CC(C)c1ccc([C@@H](NC(=O)[C@@H]2CC[C@H](C)N2C(=O)Cc2cnn[nH]2)c2ccccc2)nc1 [Compound 280, (2S,5S)-5-methyl-N-[(S)-phenyl[5-(propan-2-yl)pyridin-2-yl]methyl]-1-[2-(1H-1,2,3-triazol-5-yl)acetyl]pyrrolidine-2-carboxamide] | 149 | 1530 | > 100000
12 | CC(C)c1ccc([C@@H](NC(=O)[C@@H]2C[C@@H](F)CN2C(=O)CNC(=O)N(C)C)c2ccccc2)nc1 [Compound 250, (2S,4R)-1-{2-[(dimethylcarbamoyl)amino]acetyl}-4-fluoro-N-[(S)-phenyl[5-(propan-2-yl)pyridin-2-yl]methyl]pyrrolidine-2-carboxamide] | 43 | 1270 | > 100000
13 | CC(=O)N1CCC2(CCC(C(=O)N3C[C@H](F)C[C@H]3C(=O)N[C@@H](c3ccccc3)c3ccc(C(C)C)cc3)C2)CC1 (stereo partly drawn) [Compound 184, (2S,4R)-1-{8-acetyl-8-azaspiro[4.5]decane-2-carbonyl}-4-fluoro-N-[(S)-phenyl[4-(propan-2-yl)phenyl]methyl]pyrrolidine-2-carboxamide] | 75 | 3030 | > 100000
14 | CC(C)c1ccc([C@@H](NC(=O)[C@@H]2C[C@@H](F)CN2C(=O)Cc2ccc(=O)[nH]c2)c2ccccc2)nc1F [Compound 791, (2S,4R)-4-fluoro-N-[(S)-[6-fluoro-5-(propan-2-yl)pyridin-2-yl](phenyl)methyl]-1-[2-(6-oxo-1,6-dihydropyridin-3-yl)acetyl]pyrrolidine-2-carboxamide] | 7 | 390 | > 100000
15 | Cc1cn(CC(=O)N2C[C@H](F)C[C@H]2C(=O)N[C@@H](c2ccccc2)c2ccc(C3CC(F)(F)C3)cn2)c(=O)[nH]c1=O [Compound 535, (2S,4R)-N-[(S)-[5-(3,3-difluorocyclobutyl)pyridin-2-yl](phenyl)methyl]-4-fluoro-1-[2-(5-methyl-2,4-dioxo-1,2,3,4-tetrahydropyrimidin-1-yl)acetyl] pyrrolidine-2-carboxamide] | 12 | 1220 | > 100000
16 | CC(C)c1ccc(C(NC(=O)[C@@H]2C[C@@H](F)CN2C(=O)Cc2cnn[nH]2)c2ccn[nH]2)cc1F (single isomer, unassigned) [Compound 623, (2S,4R)-4-fluoro-N-[(R) or (S)-[3-fluoro-4-(propan-2-yl)phenyl](1H-pyrazol-5-yl)methyl]-1-[2-(1H-1,2,3-triazol-5-yl)acetyl]pyrrolidine-2-carboxamide] | 111 | 4070 | > 100000
17 | CC1(c2ccc([C@@H](NC(=O)[C@@H]3C[C@@H](F)CN3C(=O)COC(=O)N3CCN(CC(F)(F)F)CC3)c3ccccc3)cc2F)CC1 [Compound 585, 2-[(2S,4R)-4-fluoro-2-{[(S)-[3-fluoro-4-(1-methylcyclopropyl)phenyl](phenyl)methyl]carbamoyl}pyrrolidin-1-yl]-2-oxoethyl 4-(2,2,2-trifluoroethyl) piperazine-1-carboxylate] | 202 | 3210 | > 100000
18 | Cc1cc(CC(=O)N2C[C@H](F)C[C@H]2C(=O)N[C@@H](c2ccccc2)c2ccc(C(C)C)c(F)n2)c[nH]c1=O [Compound 784, (2S,4R)-4-fluoro-N-[(S)-[6-fluoro-5-(propan-2-yl)pyridin-2-yl](phenyl)methyl]-1-[2-(5-methyl-6-oxo-1,6-dihydropyridin-3-yl)acetyl]pyrrolidine-2-carboxamide] | 5 | 310 | > 100000
19 | CC1(c2ccc([C@@H](NC(=O)[C@@H]3C[C@@H](F)CN3C(=O)Cn3c(=O)[nH]c4ccccc43)c3ccccc3)cc2F)CC1 [Compound 570, (2S,4R)-4-fluoro-N-[(S)-[3-fluoro-4-(1-methylcyclopropyl)phenyl](phenyl)methyl]-1-[2-(2-oxo-2,3-dihydro-1H-1,3-benzodiazol-1-yl)acetyl]pyrrolidine-2-carboxamide] | 82 | 1220 | > 100000
20 | O=C(N[C@@H](c1ccccc1)c1ccc(C2CC(F)(F)C2)cn1)[C@@H]1C[C@@H](F)CN1C(=O)Cc1[nH]nnc1C(F)(F)F [Compound 542, (2S,4R)-N-[(S)-[5-(3,3-difluorocyclobutyl)pyridin-2-yl] (phenyl)methyl]-4-fluoro-1-{2-[4-(trifluoromethyl)-1H-1,2,3-triazol-5-yl]acetyl} pyrrolidine-2-carboxamide] | 11 | 1480 | > 100000
21 | CC(C)c1ccc([C@@H](NC(=O)[C@@H]2C[C@@H](F)CN2C(=O)CN2CC(=O)N(C)CC2=O)c2ccccc2)cc1F [Compound 339, (2S,4R)-4-fluoro-N-[(S)-[3-fluoro-4-(propan-2-yl)phenyl](phenyl)methyl]-1-[2-(4-methyl-2,5-dioxopiperazin-1-yl)acetyl]pyrrolidine-2-carboxamide] | 18 | 310 | > 100000

From US11814367B2, “Inhibitors of glycogen synthase 1 (GYS1) and methods of use thereof” (Maze Therapeutics, Inc., priority 2021, dated 2023)
